According to patent US7649017B2, “Compositions intended for the treatment of peripheral neuropathies, preparation thereof and uses of same” (Universite de la Mediterranee, priority 2002, dated 2010):

Assays:
[1] = test system: C22 males (murine CMT model); assay: Rotor-Rod test, double-blind study vitamin C versus placebo in C22 males; format: in vivo, mice; conditions: 1.12 mg once a week by gavage
Method: Rotor-Rod test performance was evaluated every month (at 3 months, 4 months and 5 months). The standard deviation is indicated by the darkened section at the top of each column. […] Only males (from two litters) were used, since the degree of severity is sex-specific. […] The fact that only males were included is very important, because it is known that severity varies widely in human patients according to sex, a variability also seen in the animal models used, in which there appears to be a major modifier gene having an impact on myelination. “Genetic background” thus seems to play a significant role in the severity of the phenotype. It was therefore justified to work with individuals from a same litter. […] The animals were then evaluated in the Rotor-Rod test. The study lasted for three months (age of animals: two to five months). The results are illustrated in FIG. 1.

[2] = test system: C22 animals (murine CMT model); assay: Bar crossing (posture) test and grip test, third study; format: in vivo, mice
Method: FIG. 2: A second series of preclinical tests with the same design as the first series (described in FIG. 1) was carried out. Animals were tested after one month and two months of treatment using the bar crossing test (the longer the animal takes to cross the bar or the more it slips off, the worse the locomotor performance). Animals were also tested in the grip test which measures the traction strength that must be applied for the animal to release the bar (the higher this value the better the performance). To confirm these findings and further investigate the mechanism of phenotypic correction, a third study was carried out. Two tests were used: a posture test (crossing a bar that gets progressively narrower) and a test of muscle strength, the “grip test”. FIG. 2 illustrates the results after two months of treatment. […] This test is a good indicator of muscle strength.

C22 mice = assay: Histologic analysis of sciatic nerve, percentage of myelinated fibers; format: in vivo; conditions: C22 mice treated for three months
Method: The sciatic nerve was harvested and the percentage of myelinated fibers was determined by histologic analysis and is given in the figure on the ordinate, together with the results of a non-transgenic control (more than 95% of peripheral nerve fibers are myelinated in adults).
To obtain data on the mechanism of this phenotypic correction, the histologic features of the nerves of treated animals were studied. For this, some of the treated animals were sacrificed and a histologic analysis was performed. The percentage of myelinated nerve fibers increased with treatment (FIG. 3). This percentage was 95% for non-transgenic animals, 20-30% for untreated C22 mice and 70% for treated animals. The treatment therefore reactivated myelination, which was inhibited by overexpression of PMP22.

[3] = test system: transgenic C22 animals (murine CMT model, human YAC containing the PMP22 gene); assay: Rotor-Rod test, first open trial in transgenic C22 animals; format: in vivo, mice; conditions: treated with vitamin C
Method: To better understand the pathophysiology of this disease and to propose therapeutic solutions, a murine disease model was constructed in 1996 by transgenesis of a human YAC containing the PMP22 gene (Huxley et al., Human Molecular Genetics, 1996, Vol. 5, No. 5, 563-569). […] The action of vitamin C was tested in this model. A first “open” trial was carried out, without inclusion criteria, by simply separating males and females so as to rapidly determine whether a phenotypic correction effect could be seen. The Rotor-Rod test, classically used in pharmacology, was chosen as the criterion of muscle strength. […] The results, expressed in seconds, confirm that males were more severely affected (males in this line even have early mortality, since all males die before 10 months of age).

[4] = test system: C22 males (murine CMT model); assay: Survival of treated C22 males under continued treatment; format: in vivo, mice; conditions: continued vitamin C treatment; untreated males die before 10 months of age
From the text: The results, expressed in seconds, confirm that males were more severely affected (males in this line even have early mortality, since all males die before 10 months of age).
Performance continued to improve, even after taking into account that the animals had aged.

How did the “Rotor-Rod test performance, first month of treatment” value ([1]; first month) turn out when `O=C1O[C@H]([C@@H](O)CO)C(O)=C1O` [vitamin C, ascorbic acid] was run?
Its value is “not very effective”.

And the “Time on the bar (Rotor-Rod test), second month of treatment” value ([1]; from the second month)?
Its value is about 50 s.

What about the “Rotor-Rod test performance, third month of treatment” value ([1]; third month) of the same molecule?
Its value is “further improved”.

What about the Bar crossing performance ([2]; after one and two months of treatment) of the same molecule?
The Bar crossing performance was “deteriorated at the first month, then improved during the second”.

And the “Grip test (muscle strength)” value ([2]; after two months of treatment)?
The value was “improvement was also seen starting from two months of treatment”.

And the “Percentage of myelinated nerve fibers” value (C22 mice)?
Its value is 70%.

And the “Seconds on the bar (Rotor-Rod test), treated animals” value ([3]; C22 females)?
Its value is 45.7 ± 10 s.

And the “Seconds on the bar (Rotor-Rod test), treated animals” value ([3]; C22 males)?
Its value is 46 ± 14 s.

What about the “Age at which treated males were still alive” value [4] of the same molecule?
Its value is “still alive at age 24 months”.
